Reference: BindingDB's records for PubMed 9694962 (Memorial Sloan-Kettering Cancer Center, 1998)
Where “and” joins values, the source holds several entries; their conditions need not be identical. Equal entries are not always repeated. Where a SMILES comes first, the peptide text is derived from it.

Key:
[1] = biological target: Mu-type opioid receptor (Mus musculus, UniProt P42866)
[2] = biological target: Mu-type opioid receptor (Bos taurus, UniProt P79350)
Sequence of Mu-type opioid receptor (Bos taurus, UniProt P79350) (P79350 whole entry): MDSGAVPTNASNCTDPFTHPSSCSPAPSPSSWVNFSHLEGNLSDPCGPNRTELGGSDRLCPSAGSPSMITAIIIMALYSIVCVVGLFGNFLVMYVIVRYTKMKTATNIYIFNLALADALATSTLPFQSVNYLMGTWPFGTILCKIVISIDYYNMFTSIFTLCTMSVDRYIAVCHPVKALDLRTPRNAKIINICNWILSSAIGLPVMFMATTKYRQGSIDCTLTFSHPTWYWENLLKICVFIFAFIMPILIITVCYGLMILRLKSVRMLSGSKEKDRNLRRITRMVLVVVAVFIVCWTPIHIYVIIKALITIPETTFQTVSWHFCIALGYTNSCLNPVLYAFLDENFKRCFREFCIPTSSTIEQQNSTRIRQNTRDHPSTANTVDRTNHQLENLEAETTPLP

Sequence of Mu-type opioid receptor (Mus musculus, UniProt P42866) (P42866 whole entry): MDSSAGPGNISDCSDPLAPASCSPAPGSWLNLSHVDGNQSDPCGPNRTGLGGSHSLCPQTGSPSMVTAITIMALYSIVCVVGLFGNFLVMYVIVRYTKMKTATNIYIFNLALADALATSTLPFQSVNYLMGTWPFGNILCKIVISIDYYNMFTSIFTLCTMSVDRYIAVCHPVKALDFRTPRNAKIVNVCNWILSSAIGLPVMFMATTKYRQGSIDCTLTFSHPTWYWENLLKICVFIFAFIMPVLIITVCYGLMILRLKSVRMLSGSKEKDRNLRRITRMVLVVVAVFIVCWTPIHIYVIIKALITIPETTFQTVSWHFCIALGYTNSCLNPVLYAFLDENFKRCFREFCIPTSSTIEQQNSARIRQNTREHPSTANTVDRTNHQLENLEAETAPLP

| SMILES | Ki [1] | Ki [2] |
| --- | --- | --- |
| CC(C)C[C@H](NC(=O)[C@H](Cc1ccccc1)NC(=O)CNC(=O)CNC(=O)[C@@H](N)Cc1ccc(O)cc1)C(=O)N[C@@H](CCCN=C(N)N)C(=O)N[C@@H](CCCN=C(N)N)C(=O)N[C@@H](CCC(N)=O)C(=O)N[C@@H](Cc1ccccc1)C(=O)N[C@@H](CCCCN)C(=O)N[C@H](C(=O)N[C@H](C(=O)N[C@H](C(=O)O)[C@@H](C)O)C(C)C)C(C)C [(Dynorphin)2-[2-(2-{2-[2-(2-{2-[2-Amino-3-(4-hydroxy-phenyl)-propionylamino]-acetylamino}-acetylamino)-3-phenyl-propionylamino]-4-methyl-pentanoylamino}-5-guanidino-pentanoylamino)-5-guanidino-pentanoylamino]-3-methyl-pentanoic acid] | 39.8 nM and 11.4 nM | – |
| NC(=O)CNC(=O)[C@H](Cc1c[nH]c2ccccc12)NC(=O)[C@@H]1CCCN1C(=O)[C@@H](N)Cc1ccc(O)cc1 [CAS_132632] (H-YPWG-NH2) | 18 nM and 44.7 nM | – |
| CC[C@H](C)[C@H](NC(=O)[C@H](C)NC(=O)[C@H](CC(N)=O)NC(=O)[C@H](CCCCN)NC(=O)[C@H](Cc1ccccc1)NC(=O)[C@H](CC(C)C)NC(=O)[C@@H](NC(=O)[C@@H](NC(=O)[C@H](CC(C)C)NC(=O)[C@@H]1CCCN1C(=O)[C@@H](NC(=O)[C@H](CCC(N)=O)NC(=O)[C@H](CO)NC(=O)[C@H](CCCCN)NC(=O)[C@H](CCC(=O)O)NC(=O)[C@H](CO)NC(=O)[C@@H](NC(=O)[C@H](CCSC)NC(=O)[C@H](Cc1ccccc1)NC(=O)CNC(=O)CNC(=O)[C@@H](N)Cc1ccc(O)cc1)[C@@H](C)O)[C@@H](C)O)C(C)C)[C@@H](C)O)C(=O)N[C@H](C(=O)N[C@@H](CCCCN)C(=O)N[C@@H](CC(N)=O)C(=O)N[C@@H](C)C(=O)N[C@@H](Cc1cnc[nH]1)C(=O)N[C@@H](CCCCN)C(=O)N[C@@H](CCCCN)C(=O)NCC(=O)N[C@@H](CCC(N)=O)C(=O)O)C(C)C [Beta-Endorphin] (H-YGGFMTSEKSQTPLVTLFKNAIVKNAHKKGQ-OH) | 10.9 nM and 3.22 nM | – |
| COc1ccc2c3c1O[C@H]1C(=O)CC[C@@]4(O)[C@@H](C2)N(CC2CC2)CC[C@]314 | 20.3 nM and 21.2 nM | – |
| CC[C@H](C)[C@H](NC(=O)[C@H](CCCNC(=N)N)NC(=O)[C@H](CCCNC(=N)N)NC(=O)[C@H](CC(C)C)NC(=O)[C@H](Cc1ccccc1)NC(=O)CNC(=O)CNC(=O)[C@@H](N)Cc1ccc(O)cc1)C(=O)N[C@@H](CCCNC(=N)N)C(=O)N1CCC[C@H]1C(=O)N[C@@H](CCCCN)C(=O)N[C@@H](CC(C)C)C(=O)N[C@@H](CCCCN)C(=O)N[C@@H](Cc1c[nH]c2ccccc12)C(=O)N[C@@H](CC(=O)O)C(=O)N[C@@H](CC(N)=O)C(=O)N[C@@H](CCC(N)=O)C(=O)O [Dynorphin A (1-17)] | 12.8 nM and 3.32 nM | – |
| NC(=O)[C@H](Cc1ccccc1)NC(=O)[C@H](Cc1c[nH]c2ccccc12)NC(=O)[C@@H]1CCCN1C(=O)[C@@H](N)Cc1ccc(O)cc1 [Endomorphin 1] | – | 0.67 nM and 3.2 nM |
| CSCC[C@H](NC(=O)[C@H](Cc1ccccc1)NC(=O)CNC(=O)CNC(=O)[C@@H](N)Cc1ccc(O)cc1)C(=O)N[C@@H](CCCNC(=N)N)C(=O)N[C@@H](Cc1ccccc1)C(=O)O [enkephalin-Met, Arg(6)-Phe(7)] (H-YGGFMRF-OH) | 30 nM and 13.4 nM | – |
| C=CCN1CC[C@]23CCCCC2[C@H]1Cc1ccc(O)cc13 (some centres not stated) [Levallorphan] | 0.97 nM and 0.96 nM | – |
| CC(C)C[C@H](NC(=O)[C@H](Cc1ccccc1)NC(=O)CNC(=O)[C@@H](CO)NC(=O)[C@@H](N)Cc1ccc(O)cc1)C(=O)N[C@H](C(=O)O)[C@@H](C)O [DSLET-OH] | 20 nM and 10.8 nM | – |
| NC(=O)[C@H](Cc1ccccc1)NC(=O)[C@H](Cc1ccccc1)NC(=O)[C@@H]1CCCN1C(=O)[C@@H](N)Cc1ccc(O)cc1 | – | 0.43 nM and 4 nM |
| C=CCN1CCC23c4c5ccc(O)c4O[C@@H]2C(=NNC(=O)c2ccccc2)CCC3(O)C1C5 (some centres not stated) | 0.2 nM and 0.12 nM | – |
| CN1CCC23c4c5ccc(O)c4O[C@H]2[C@@H](OC2OC(C(=O)O)C(O)C(O)C2O)C=C[C@H]3[C@H]1C5 (some centres not stated) [Morphine 6-glucuronide] | 2.35 nM and 2.47 nM | – |
